# Results published in paper PMC12088962, “Design, synthesis, and biological investigation of new thiazole-based derivatives as multi-targeted inhibitors endowed with antiproliferative, antioxidant, and antibacterial properties” (Frontiers in Chemistry, 2025).
# Tests used:
# E. coli = assay: MIC by twofold serial dilution; assay type: cell-based, Escherichia coli (ATCC 11775); conditions: Gram-negative; for MIC: Escherichia coli, read-out: Minimum inhibitory concentration (MIC), E. coli
# Experimental: (§1) The antibacterial efficacy of compounds 11b, 11e, and 12b was evaluated against Gram-positive bacteria (S. aureus and B. subtilis) and Gram-negative bacteria (E. coli and P. aeruginosa). Table 5 presents the MICs (nM) of these compounds against the evaluated bacteria, utilizing ciprofloxacin as the reference drug, determined through a twofold serial dilution approach on a 96-well microtiter plate ([Frejat F. O. et al., 2022]).
# as §1, with “The” for “Table 5 presents the”, “the tested” for “these”, “bacteria were” for “bacteria, utilizing ciprofloxacin as the reference drug,”, “2022]). See Appendix A for more details.” for “2022]).”
# (§2) 4.2. Antimicrobial activity
# (§3) 4.2.1. Organisms and culture conditions […]
# (§4) 4.2.2. Minimum inhibitory concentration assay
# (§5) In 96-well microtiter plates and […] of fresh bacterial culture of a single McFarland unit overnight, a double serial dilution of each compound […] in sterile standard saline were prepared to every single source well. Ciprofloxacin antibiotic (5 mg / mL-1) and normal saline were included as standard reference in each assay. The plates were incubated at 37 0C overnight.
# (§6) As an indicator of bacterial growth, […] of p -iodonitrotetrazolium violet (INT) was added to each well and incubated at 37 0C for 30 min. MIC values are recorded as the lowest concentration […]
# (§7) tetrazolidium salt acts as an electron accepter and is reduced to a red colored formazan product by biological activity organisms. Where bacterial growth was inhibited, the solution in the well remained clear after incubation with INT. […]
# B. subtilis = assay: MIC by twofold serial dilution; assay type: cell-based, Bacillus subtilis (ATCC 6051); conditions: for MIC: Bacillus subtilis, read-out: Minimum inhibitory concentration (MIC), B. subtilis; for MIC / Minimum inhibitory concentration (MIC), B. subtilis: Gram-positive
# Experimental: as §1
# as §1, with “The” for “Table 5 presents the”, “the tested” for “these”, “bacteria were” for “bacteria, utilizing ciprofloxacin as the reference drug,”, “2022]). See Appendix A for more details.” for “2022]).”
# as §2, §3, §4, §5, §6, §7
# P. aeruginosa = assay: MIC by twofold serial dilution; assay type: cell-based, Pseudomonas aeuroginosa (ATCC 10145); conditions: Gram-negative; for MIC: Pseudomonas aeruginosa, read-out: Minimum inhibitory concentration (MIC), P. aeruginosa
# Experimental: as §1
# as §1, with “The” for “Table 5 presents the”, “the tested” for “these”, “bacteria were” for “bacteria, utilizing ciprofloxacin as the reference drug,”, “2022]). See Appendix A for more details.” for “2022]).”
# as §2, §3, §4, §5, §6, §7
# S. aureus = assay: MIC by twofold serial dilution; assay type: cell-based, Staphylococcus aureus (ATCC 12600); conditions: Gram-positive; for MIC: Staphylococcus aureus, read-out: Minimum inhibitory concentration (MIC), S. aureus
# Experimental: as §1
# as §1, with “The” for “Table 5 presents the”, “the tested” for “these”, “bacteria were” for “bacteria, utilizing ciprofloxacin as the reference drug,”, “2022]). See Appendix A for more details.” for “2022]).”
# as §2, §3, §4, §5, §6, §7
# E. coli DNA gyrase = E. coli DNA gyrase (Escherichia coli, UniProt P0AES6); assay: DNA gyrase supercoiling assay; assay type: biochemical; conditions: for remaining activity at 1 µM: read-out: RA (residual activity of the enzyme), E. Coli DNA gyrase
# Experimental: 4.2.3. Determination of Inhibitory Activities on E. coli DNA Gyrase.
# All the final compounds were tested for E. coli DNA gyrase inhibitory activity in a supercoiling assay. Activities were determined on streptavidin -coated 96-well microtiter plates from Thermo scientific Pierce. First, the plates were rehydrated with buffer (20 mM Tris -HCl with pH 7.6, 0.01% […]
# immobilized. After washing off the unbound oligonucleotide, the enzyme test was performed. The reaction volume of 30 μL in buffer (35 mM Tris-HCl with pH 7.5, 4 mM MgCl 2, 24 mM KCl, 2 […]
# 1.5 U of DNA gyrase from E. coli or S. aureus, 0.75 μg of relaxed pNO1 plasmid, and 3 μL solution of the inhibitor in 1 0% DMSO and 0.008% Tween 20. Reaction solutions were incubated at 37 °C […]
# for 30 min. After that, the TF buffer (50 mM NaOAc with pH 5.0, 50 mM NaCl and 50 mM MgCl2) was added to terminate the enzymatic reaction. After additional incubation for 30 min at rt, during which biotin-oligonucleotide-plasmid triplex was formed, the unbound plasmid was washed off using TF buffer and SybrGOLD in T10 buffer (10 mM Tris HCl wit h pH 8.0 and 1 mM EDTA) was added. The fluorescence was measured with a microplate reader (BioTek Synergy H4, excitation: 485 nm, emission: 535 nm). […]
# tested compounds. GraphPad Prism software was used to calculate the IC50 values. The result is given as the average value of three independent measurements. […]
# A-549 cells = assay: Antiproliferative MTT assay; conditions: for IC50: Homo sapiens, A549, read-out: Antiproliferative activity IC50 ± SEM, A-549
# Excerpt: (§8) Dose-response assays determined the IC50 values for the novel compounds. We derived the reported data from a minimum of two separate experiments, each consisting of three repetitions per concentration.
# Assay for antiproliferative effect
# HT-29 cells = assay: Antiproliferative MTT assay; conditions: Homo sapiens, HT-29, read-out: Antiproliferative activity IC50 ± SEM, HT-29
# Excerpt: as §8
# Assay for antiproliferative effect
# MCF-7 cells = assay: Antiproliferative MTT assay; conditions: for IC50: Homo sapiens, MCF7, read-out: Antiproliferative activity IC50 ± SEM, MCF-7
# Excerpt: as §8
# Assay for antiproliferative effect
# [1] = system: four cancer cell lines (A-549, MCF-7, Panc-1, HT-29); assay: Antiproliferative MTT assay, average over four cancer cell lines; conditions: for GI50: Homo sapiens, read-out: Antiproliferative activity, Average (GI50)
# Excerpt: as §8
# Assay for antiproliferative effect
# in vitro = conditions: human, MCF-10A mammary gland epithelial cells (normal cell line)
# Panc-1 cells = assay: Antiproliferative MTT assay; conditions: Homo sapiens, PANC-1, read-out: Antiproliferative activity IC50 ± SEM, Panc-1
# Excerpt: as §8
# Assay for antiproliferative effect
# VEGFR-2 = VEGFR-2 (Homo sapiens, UniProt P35968); assay: VEGFR-2 inhibitory assay
# Experimental: The outcomes are presented as IC50 values.
# (§9) was added to each well followed by incubation of 1h and then washing of the plates using buffer.
# (§10) The enhancement solution was added to each well and the signal was recorded at excitation and
# (§11) The autophosphorylation percentage inhibition by compounds was calculated using the following equation:
# Prepare all the solutions using autoclaved, deionized water and analytical grade reagents.
# and store all the reagents at room temperature (unless indicated otherwise).
# solution, add 5 mL ultra-pure water; 1×Kinase Assay Buffer: add 25 mL HEPES solution (1 M),
# water, adjust pH to 7.5 and constant volume to 500 mL using ultrapure water; 4×Stop solution (40
# mM): Mix 0.8 mL of the foregoing EDTA solution, 1 mL 10×Detection Buffer and 8.2 mL ultra-
# pure water; 1×Detection Buffer: Mix 1 mL 10×Detection Buffer with 9 mL water; 4×VEGFR
# μM) was added to 624 μL 1×Kinase Assay Buffer and mixed; 4×ULight™-labeled JAK1
# (substrate) (200 nM, 25 times diluted): 24 μL ULight™-labeled JAK1 (mother liquor
# concentration 5 μM) was added to 576 μL 1×Kinase Assay Buffer and mixed; 4×ATP Solution
# (40 μM, 250 times diluted): add 3 μL ATP solution (10 mM) to 747 μL 1×Kinase Assay Buffer
# 2×substrate/ATP Mix: 560 μL foregoing 4×ULight™-labeled JAK1 and 560 μL 4×ATP solution
# and mixed (prepared before use). The assays used an ULight-labeled peptide substrate and a
# Europium-W1024-labeled antiphosphotyrosine antibody. The VEGFR-2 was purchased from
# Carna Biosciences, Inc. (New York, USA). The 384-well plates were obtained from PerkinElmer.
# 5 μL 2×VEGFR-2 kinase solution (0.5 nM)
# was added to 384-well plates homogeneous mixing and pre-reaction at room temperature for 30 min. Next, 2.5 μL 4×Ultra ULightTM-JAK-1(Tyr1023) Peptide (200 nM)/ATP (40 μM) was added to the corresponding wells of a 384-well plate. Negative control: 2.5 μL/well 4×substrate/ATP mixture and 7.5 μL 1×kinase assay buffer in 384-well plate well. Positive control:
# μL/well 2×VEGFR-2 kinase solution was added to the 384-well plate, The final concentration of DMSO in the mixing system was 4%. After incubation at room temperature and dark for 60 min, 5 μL 4×stop solution was added to corresponding wells to react for 5 min and then 5 μL 4×detection mix was added to the corresponding wells of a 384-well plate. The mixture was centrifugally mixed and stayed for 60 min at room temperature for color development. The plate was read using a Envision plate reader. The inhibition rate (%) = (positive well reading-compound well reading)/(positive well reading-negative well reading)×100. The corresponding IC50 values were calculated using GraphPad Prism 5.0.
# EGFR = EGFR (Homo sapiens, UniProt P00533); assay: EGFR-TK inhibitory assay
# Chain of EGFR (P00533 669-1210): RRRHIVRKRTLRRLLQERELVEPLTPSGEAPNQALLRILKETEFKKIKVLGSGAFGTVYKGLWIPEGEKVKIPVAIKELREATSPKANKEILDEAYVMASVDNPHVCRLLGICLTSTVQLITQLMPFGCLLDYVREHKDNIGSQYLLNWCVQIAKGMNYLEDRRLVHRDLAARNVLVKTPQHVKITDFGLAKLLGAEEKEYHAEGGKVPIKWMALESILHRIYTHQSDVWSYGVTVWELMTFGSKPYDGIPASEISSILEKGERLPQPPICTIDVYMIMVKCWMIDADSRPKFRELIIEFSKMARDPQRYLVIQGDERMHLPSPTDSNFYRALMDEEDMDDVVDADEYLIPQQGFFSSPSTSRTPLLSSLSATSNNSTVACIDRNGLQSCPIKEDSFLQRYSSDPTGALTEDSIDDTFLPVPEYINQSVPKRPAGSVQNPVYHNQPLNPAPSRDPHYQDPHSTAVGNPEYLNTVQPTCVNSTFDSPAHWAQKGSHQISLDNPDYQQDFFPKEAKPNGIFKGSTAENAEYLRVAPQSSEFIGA
# Experimental: Baculoviral expression vectors including pBlueBacHis2B and pFASTBacHTc were used
# 5ʹ upstream to the EGFR sequence comprised a sequence that encoded (His)6. Sf-9 cells were infected for 72h for protein expression. The pellets of Sf-9 cells were solubilized in a buffer containing sodium vanadate (100 μM), aprotinin (10 μg/mL), triton (1%), HEPES buffer(50mM), ammonium molybdate (10 μM), benzamidine HCl (16 μg/mL), NaCl (10 mM),leupeptin (10 μg/mL) and pepstatin (10 μg/mL) at 0°C for 20 min at pH 7.4, followed by centrifugation for 20 min. To eliminate the nonspecifically bound material, a Ni-NTA super flow packed column was used to pass through and wash the crude extract supernatant first with 10mM and then with 100 mM imidazole. Histidine-linked proteins were first eluted with 250 and then with 500 mM imidazole subsequent to dialysis against NaCl (50 mM), HEPES (20 mM), glycerol (10%) and 1 μg/mL each of aprotinin, leupeptin and pepstatin for 120 min. The purification was performed either at 4 °C or on ice. To record autophosphorylation level, EGFR kinase assay was carried out on the basis of DELFIA/Time-Resolved Fluorometry. The compounds were first
# dissolved in DMSO absolute, subsequent to dilution to appropriate concentration using HEPES
# (25 mM) at pH 7.4. Each compound (10 μL) was incubated with recombinant enzyme (10 μL, 5
# ng for EGFR, 1:80 dilution in 100 mM HEPES) for 10 min at 25 °C, subsequent to the addition of
# 5X buffer (10 μL, containing 2 mM MnCl2, 100 μM Na3VO4, 20 mM HEPES and 1 mM DTT)
# and ATP-MgCl2 (20 μL, containing 0.1 mM ATP and 50 mM MgCl2) and incubation for 1h. The
# negative and positive controls were included in each plate by the incubation of enzyme either with
# or without ATP-MgCl2. The liquid was removed after incubation and the plates were washed
# thrice using a wash buffer. The Europium-tagged antiphosphotyrosine antibody (75 μL, 400 ng)
# as §9, §10, §11
# calculated. The majority of signals detected by antiphosphotyrosine antibody were from EGFR because the enzyme preparation contained low impurities.
# Chain of VEGFR-2 (P35968 20-1356): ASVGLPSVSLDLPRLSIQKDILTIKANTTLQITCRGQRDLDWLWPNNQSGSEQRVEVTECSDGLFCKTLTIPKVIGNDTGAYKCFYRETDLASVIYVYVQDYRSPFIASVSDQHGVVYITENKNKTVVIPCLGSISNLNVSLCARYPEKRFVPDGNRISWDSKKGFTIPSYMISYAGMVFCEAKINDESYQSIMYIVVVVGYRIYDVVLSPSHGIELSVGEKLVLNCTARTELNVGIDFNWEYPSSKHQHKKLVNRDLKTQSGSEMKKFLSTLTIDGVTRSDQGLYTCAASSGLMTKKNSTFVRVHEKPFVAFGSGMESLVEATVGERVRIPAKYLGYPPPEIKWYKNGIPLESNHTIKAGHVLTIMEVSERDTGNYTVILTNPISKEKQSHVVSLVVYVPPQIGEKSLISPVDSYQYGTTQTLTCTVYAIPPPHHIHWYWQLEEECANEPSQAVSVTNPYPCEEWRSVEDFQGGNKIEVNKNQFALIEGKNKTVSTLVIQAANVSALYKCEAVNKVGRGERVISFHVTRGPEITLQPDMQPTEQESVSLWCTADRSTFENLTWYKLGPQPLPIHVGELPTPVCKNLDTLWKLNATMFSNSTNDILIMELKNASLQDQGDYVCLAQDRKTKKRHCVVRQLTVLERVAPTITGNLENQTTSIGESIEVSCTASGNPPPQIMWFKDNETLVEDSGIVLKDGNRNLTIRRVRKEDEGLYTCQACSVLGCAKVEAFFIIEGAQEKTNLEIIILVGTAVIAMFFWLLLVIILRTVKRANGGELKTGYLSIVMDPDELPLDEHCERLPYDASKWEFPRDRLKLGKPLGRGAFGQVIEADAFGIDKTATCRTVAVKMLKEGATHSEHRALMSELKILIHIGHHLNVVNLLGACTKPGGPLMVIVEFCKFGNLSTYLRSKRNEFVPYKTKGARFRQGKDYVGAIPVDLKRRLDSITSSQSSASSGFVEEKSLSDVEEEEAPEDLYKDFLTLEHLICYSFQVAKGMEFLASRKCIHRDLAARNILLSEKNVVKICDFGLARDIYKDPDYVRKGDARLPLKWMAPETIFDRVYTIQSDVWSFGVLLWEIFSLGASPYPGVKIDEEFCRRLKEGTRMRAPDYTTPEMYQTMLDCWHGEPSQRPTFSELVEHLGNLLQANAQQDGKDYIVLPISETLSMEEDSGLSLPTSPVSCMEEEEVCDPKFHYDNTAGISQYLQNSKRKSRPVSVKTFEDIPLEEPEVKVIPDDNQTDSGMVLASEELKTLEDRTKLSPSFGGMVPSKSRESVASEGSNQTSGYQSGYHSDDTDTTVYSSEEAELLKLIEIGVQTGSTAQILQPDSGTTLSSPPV
Structure (SMILES),remaining activity at 1 µM (E. coli DNA gyrase) [%],IC50 (A-549 cells) [nM],IC50 (HT-29 cells) [nM],IC50 (MCF-7 cells) [nM],GI50 [1] [nM],"viability at 96 h, 50 µM (in vitro) [%]",IC50 (Panc-1 cells) [nM],IC50 (VEGFR-2) [nM],IC50 (EGFR) [nM],IC50 (E. coli DNA gyrase) [nM],also measured
"O=C(O)c1cn(C2CC2)c2cc(N3CCNCC3)c(F)cc2c1=O [Ciprofloxacin, reference compound]",–,–,–,–,–,–,–,–,–,–,"MIC (E. coli): 0.06 ± 0.004 µM; MIC (B. subtilis): 0.01 µM; Minimum inhibitory concentration (MIC), B. subtilis (B. subtilis): 0.01 ± 0.001 µM; MIC (P. aeruginosa): 0.06 ± 0.004 µM; MIC (S. aureus): 0.03 ± 0.002 µM"
"Cc1nc(SCC(=O)c2cc3cc(Br)ccc3o2)sc1C(=O)/C=C/c1ccccc1 [Compound 12d, (E)-1-(2-((2-(5-Bromobenzofuran-2-yl)-2-oxoethyl)thio)-4-methylthiazol-5-yl)-3-phenylprop-2-en-1-one]",65,45 ± 3,48 ± 3,50 ± 3,48,90,48 ± 3,–,–,–,Fold less effective than 11d (GI50) [1]: 1.6 fold
"Cc1nc(SCC(=O)c2cc3ccccc3oc2=O)sc1C(=O)/C=C/c1ccccc1 [Compound 11a, (E)-3-(2-((5-Cinnamoyl-4-methylthiazol-2-yl)thio)acetyl)-2H-chromen-2-one]",72,40 ± 2,44 ± 3,48 ± 3,44,91,44 ± 3,5200 ± 30,93 ± 4,–,–
"Cc1nc(SCC(=O)c2cc3cc(Br)ccc3oc2=O)sc1C(=O)/C=C/c1ccccc1 [Compound 11d, (E)-6-Bromo-3-(2-((5-cinnamoyl-4-methylthiazol-2-yl)thio)acetyl)-2H-chromen-2-one]",54,28 ± 1,30 ± 1,31 ± 1,30,95,30 ± 1,3600 ± 20,76 ± 3,–,Fold less potent than compound 11f (GI50) [1]: 1.1 fold
"Cc1nc(SCC(=O)c2cc3cc(Br)ccc3o2)sc1C(=O)/C=C/c1ccc(Cl)cc1 [Compound 12e, (E)-1-(2-((2-(5-bromobenzofuran-2-yl)-2-oxoethyl)thio)-4-methylthiazol-5-yl)-3-(4-chlorophenyl)prop-2-en-1-one]",–,60 ± 5,62 ± 5,64 ± 5,62,94,62 ± 5,–,–,217 ± 15,Fold less effective than compound 11b (DNA gyrase IC50) (E. coli DNA gyrase): approximately 1.2 fold; Fold less efficient than 11e (GI50) [1]: 1.5 fold
"COc1ccc(/C=C/C(=O)c2sc(SCC(=O)c3cc4ccccc4o3)nc2C)cc1 [Compound 12c, (E)-1-(2-((2-(Benzofuran-2-yl)-2-oxoethyl)thio)-4-methylthiazol-5-yl)-3-(4-methoxyphenyl)prop-2-en-1-one]",59,33 ± 2,37 ± 2,39 ± 2,36,91,36 ± 2,4050 ± 20,83 ± 3,–,–
"Cc1nc(SCC(=O)c2cc3ccccc3o2)sc1C(=O)/C=C/c1ccccc1 [Compound 12a, (E)-1-(2-((2-(Benzofuran-2-yl)-2-oxoethyl)thio)-4-methylthiazol-5-yl)-3-phenylprop-2-en-1-one]",61,65 ± 5,66 ± 5,70 ± 5,67,93,66 ± 5,–,–,–,–
"C#Cc1cccc(Nc2ncnc3cc(OCCOC)c(OCCOC)cc23)c1 [Erlotinib, reference compound]",–,30 ± 3,30 ± 3,40 ± 3,–,–,30 ± 3,–,–,–,–
"COc1ccc(/C=C/C(=O)c2sc(SCC(=O)c3cc4cc(Br)ccc4o3)nc2C)cc1 [Compound 12f, (E)-1-(2-((2-(5-Bromobenzofuran-2-yl)-2-oxoethyl)thio)-4-methylthiazol-5-yl)-3-(4-methoxyphenyl)prop-2-en-1-one]",–,55 ± 4,56 ± 4,59 ± 4,57,92,56 ± 4,–,–,208 ± 15,Fold less effective than compound 11b (DNA gyrase IC50) (E. coli DNA gyrase): approximately 1.2 fold; Fold less potent than compound 11f (GI50) [1]: 2.1 fold
"COc1ccc(/C=C/C(=O)c2sc(SCC(=O)c3cc4cc(Br)ccc4oc3=O)nc2C)cc1 [Compound 11f, (E)-6-Bromo-3-(2-((5-(3-(4-methoxyphenyl)acryloyl)-4-methylthiazol-2-yl)thio)acetyl)-2H-chromen-2-one]",71,25 ± 1,28 ± 1,29 ± 1,27,93,26 ± 1,2900 ± 10,71 ± 3,–,"Fold more potent than erlotinib (IC50), A-549 (A-549 cells; A-549): 1.2 fold; Fold more potent than erlotinib (IC50), MCF-7 (MCF-7 cells; MCF-7): 1.4 fold; Fold more active than erlotinib (GI50) ([1]; four cancer cell lines): 1.2 fold"
"Cc1nc(SCC(=O)c2cc3ccccc3oc2=O)sc1C(=O)/C=C/c1ccc(Cl)cc1 [Compound 11b, (E)-3-(2-((5-(3-(4-Chlorophenyl)acryloyl)-4-methylthiazol-2-yl)thio)acetyl)-2H-chromen-2-one]",–,69 ± 6,72 ± 6,74 ± 6,71,92,70 ± 6,–,–,182 ± 13,"MIC (E. coli): 0.042 µM; Minimum inhibitory concentration (MIC), E. coli (E. coli): 0.042 ± 0.003 µM; Fold less effective than novobiocin (DNA gyrase IC50) (E. coli DNA gyrase): 1.1 fold; Fold less efficient than ciprofloxacin (MIC), B. subtilis (B. subtilis): 1.8 fold; MIC (B. subtilis): 0.018 µM; Minimum inhibitory concentration (MIC), B. subtilis (B. subtilis): 0.018 ± 0.001 µM; Minimum inhibitory concentration (MIC), P. aeruginosa (P. aeruginosa): 0.045 ± 0.003 µM; MIC (P. aeruginosa): 0.045 µM; Minimum inhibitory concentration (MIC), S. aureus (S. aureus): 0.023 ± 0.001 µM; MIC (S. aureus): 0.023 µM"
"Cc1nc(SCC(=O)c2cc3ccccc3o2)sc1C(=O)/C=C/c1ccc(Cl)cc1 [Compound 12b, (E)-1-(2-((2-(Benzofuran-2-yl)-2-oxoethyl)thio)-4-methylthiazol-5-yl)-3-(4-chlorophenyl)prop-2-en-1-one]",–,61 ± 5,65 ± 5,68 ± 5,65,90,64 ± 5,–,–,197 ± 12,MIC (E. coli): 0.062 ± 0.004 µM; MIC (B. subtilis): 0.029 ± 0.001 µM; MIC (P. aeruginosa): 0.064 ± 0.004 µM; MIC (S. aureus): 0.034 ± 0.002 µM
